The test system of one data set is tumor. Nature of the data set: In vivo anti-tumor activity in pre-clinical animal studies. As to conditions: compared with compounds of the invention.
Data set [1] can be described thus: Half-life in pre-clinical animal studies. Type of data set: in vivo. As to conditions: compared with compounds of the invention.

Take `CNC(=O)c1cc(Oc2ccc(NC(=O)Nc3ccc(Cl)c(C(F)(F)F)c3)cc2)ccn1` [sorafenib]: the “in vivo anti-tumor activities” value in the data set with tumor was “weaker than that of many of the compounds in the present invention”. The half-life entry in data set [1] is listed as “shorter half-life than many of the compounds in this invention”.

For the origin of these results see patent US9359338B2, “Cyclopropanecarboxamido-substitute aromatic compounds as anti-tumor agents” (Crown Bioscience Inc. (Taiwan), priority 2012, dated 2016).
